How the values were obtained:
Experiment in all cases: MIC of imipenem, ertapenem and meropenem
[1] = system: K. pneumoniae; assay type: cell-based, Klebsiella pneumoniae
[2] = system: P. rettgeri; assay type: cell-based, Providencia rettgeri
[3] = system: P. mirabilis; assay type: cell-based
[4] = system: E. aerogenes; assay type: cell-based, Enterobacter aerogenes
[5] = system: S. typhimurium; assay type: cell-based

With `C[C@@H](O)[C@H]1C(=O)N2C(C(=O)O)=C(SCCN=CN)C[C@H]12` [IPM, imipenem] the MIC ([1]; K. pneumoniae LIB, OXA-48) was 16 µg/mL, the MIC ([1]; K. pneumoniae LIE, KPC-2 + TEM-2 + OXA-9) was >32 µg/mL and the MIC ([1]; K. pneumoniae LOU, OXA-48) was 4 µg/mL. The MIC ([1]; K. pneumoniae MAD (VIM-1 + CTX-M-3)) was 1 µg/mL, the MIC ([1]; K. pneumoniae MAD, VIM-1+ CTX-M-3) was 1 µg/mL and the MIC ([1]; K. pneumoniae MEK (CTX-M-15 + SHV-11)) was 1.5 µg/mL. The MIC ([1]; K. pneumoniae MEK, CTX-M-15 + SHV-11, non-carbapenemase producer, porin deficiency) was 1.5 µg/mL, the MIC ([1]; K. pneumoniae MUS (KPC-2 + TEM-1 + SHV-11 + SHV-12)) was 0.75 µg/mL and the MIC ([1]; K. pneumoniae MUS, KPC-2 + TEM-1 + SHV-11 + SHV-12) was 0.75 µg/mL. For the same compound, the MIC ([1]; K. pneumoniae OM2 (NDM-1 + TEM-1 + CTX-M-3 + SHV-11 + OXA-1)) was 0.75 µg/mL, the MIC ([1]; K. pneumoniae OM2, NDM-1 + TEM-1 + CTX-M-3 + SHV-11 + OXA-1) was 0.75 µg/mL and the MIC ([1]; K. pneumoniae OM4, NDM-1 + TEM-1 + CTX-M-15 + SHV-12 + OXA-9) was 4 µg/mL. It also gave an MIC ([1]; K. pneumoniae OM8, NDM-1 + TEM-1 + CTX-M-15 + SHV-11 + OXA-1) of 2 µg/mL, an MIC ([1]; K. pneumoniae OM11, OXA-48 + TEM-1 + CTX-M-14) of 0.5 µg/mL and an MIC ([1]; K. pneumoniae OM13, NDM-1 + TEM-1 + CTX-M-15 + SHV-28 + OXA-1 + OXA-9) of 3 µg/mL. The MIC ([1]; K. pneumoniae OM14, OXA-48 + TEM-1) was 0.5 µg/mL, the MIC ([1]; K. pneumoniae OM15, NDM-1 + CTX-M-15 + SHV-130 + OXA-1) was 1.5 µg/mL and the MIC ([1]; K. pneumoniae OM16, NDM-1 + CTX-M-15 + OXA-1 + OXA-181) was 8 µg/mL. The MIC ([1]; K. pneumoniae OM19, NDM-1 + CTX-M-15 + SHV-12 + OXA-1) was 4 µg/mL, the MIC ([1]; K. pneumoniae OMA419 (NDM-1 + OXA-1)) was 1.5 µg/mL and the MIC ([1]; K. pneumoniae OMA419, NDM-1 + OXA-1) was 1.5 µg/mL. For the same compound, the MIC ([1]; K. pneumoniae OMA601, NDM-1 + CTX-M-15 + OXA-1 + OXA-9) was >32 µg/mL, the MIC ([1]; K. pneumoniae OMA (OXA-181 + CTX-M-15 + OXA-1)) was 0.5 µg/mL and the MIC ([1]; K. pneumoniae OMA, OXA-181 + CTXM-15 + OXA-1) was 0.5 µg/mL. It also gave an MIC ([1]; K. pneumoniae RAM (OXA-48)) of 1 µg/mL, an MIC ([1]; K. pneumoniae RAM, OXA-48) of 1 µg/mL and an MIC ([1]; K. pneumoniae ROB (OXA-48 + CTX-M-15 + TEM-1)) of 0.38 µg/mL. For the same compound, the MIC ([1]; K. pneumoniae ROU (OXA-48 + CTX-M-15)) was 0.5 µg/mL, the MIC ([1]; K. pneumoniae ROU, OXA-48 + CTX-M-15) was 0.5 µg/mL and the MIC ([1]; K. pneumoniae SCO (OXA-48)) was 0.5 µg/mL. The MIC ([1]; K. pneumoniae SCO, OXA-48) was 0.5 µg/mL, the MIC ([1]; K. pneumoniae SHI (CTX-M-15 + TEM-1 + SHV-1)) was 0.25 µg/mL and the MIC ([1]; K. pneumoniae SHI, CTX-M-15 + TEM-1 + SHV-11, non-carbapenemase producer, porin deficiency) was 0.25 µg/mL. It also gave an MIC ([1]; K. pneumoniae SHM (CTX-M-15 + TEM-1 + SHV-11)) of 3 µg/mL, an MIC ([1]; K. pneumoniae SHM, CTX-M-15 + TEM-1 + SHV-11, non-carbapenemase producer, porin deficiency) of 3 µg/mL and an MIC ([1]; K. pneumoniae SIC (OXA-48 + CTX-M-15 + SHV-28)) of 0.25 µg/mL. For the same compound, the MIC ([1]; K. pneumoniae SIC, OXA-48 + CTX-M-15 + SHV-28) was 0.25 µg/mL, the MIC ([1]; K. pneumoniae SIM (CTX-M-15 + TEM-1 + SHV-1)) was 8 µg/mL and the MIC ([1]; K. pneumoniae SIM, CTX-M-15 + TEM-1 + SHV-1, non-carbapenemase producer, porin deficiency) was 8 µg/mL. The MIC ([1]; K. pneumoniae TAW, IMP-8 + SHV-12) was 0.5 µg/mL, the MIC ([1]; K. pneumoniae TIK, OXA-48) was 0.75 µg/mL and the MIC ([1]; K. pneumoniae TUR (IMP-1)) was 1 µg/mL. The MIC ([1]; K. pneumoniae TUR, IMP-1) was 1 µg/mL, the MIC ([1]; K. pneumoniae TWA, IMP-8) was 1 µg/mL and the MIC ([1]; K. pneumoniae UK (NDM-1 + CTX-M-15 + CMY-4 + OXA-1)) was >32 µg/mL. The MIC ([1]; K. pneumoniae UK, NDM-1 + CTX-M-15 + CMY-4 + OXA-1) was >32 µg/mL, the MIC ([1]; K. pneumoniae VER, OXA-48 + TEM-1 + CTX-M-15 + SHV-11) was 0.38 µg/mL and the MIC ([1]; K. pneumoniae VSG (OXA-48 + TEM-1 + CTX-M-15 + OXA-1)) was 0.75 µg/mL. It also gave an MIC ([1]; K. pneumoniae VSG, OXA-48 + TEM-1 + CTX-M-15 + OXA-1) of 0.75 µg/mL, an MIC ([1]; K. pneumoniae YC, KPC-2 + TEM-1 + SHV-11 + SHV-12 + OXA-9) of 4 µg/mL and an MIC ([1]; strain K. pneumoniae 7725, SHV-1, non-carbapenemase producer) of 0.19 µg/mL. The MIC ([1]; strain K. pneumoniae 648236, SHV-2a, non-carbapenemase producer) was 0.25 µg/mL, the MIC ([1]; strain K. pneumoniae ALE, CTX-M-15 + SHV-1, non-carbapenemase producer) was 1 µg/mL and the MIC ([1]; strain K. pneumoniae AMS, OXA-48 + TEM-1 + CTX-M-15 + OXA-1) was 0.5 µg/mL. For the same compound, the MIC ([1]; strain K. pneumoniae BAJ, OXA-48 + TEM-1 + CTX-M-15 + SHV-28) was 0.5 µg/mL, the MIC ([1]; strain K. pneumoniae BED, CTX-M-15 + TEM-1 + SHV-11, non-carbapenemase producer) was 1.5 µg/mL and the MIC ([1]; strain K. pneumoniae BEL, OXA-48) was 1 µg/mL. It also gave an MIC ([1]; strain K. pneumoniae BEN, OXA-48 + TEM-1 + CTX-M-15 + SHV-28) of 0.38 µg/mL, an MIC ([1]; strain K. pneumoniae BER, SHV-28 + TEM-1, non-carbapenemase producer) of 1 µg/mL and an MIC ([1]; strain K. pneumoniae ELK, OXA-48 + TEM-1 + CTX-M-15 + SHV-11) of 0.5 µg/mL. For the same compound, the MIC ([1]; strain K. pneumoniae HOL, OXA-181 + CTX-M-15) was 1 µg/mL, the MIC ([1]; strain K. pneumoniae MUS, KPC-2 + TEM-1 + SHV-11 + SHV-12) was 0.75 µg/mL and the MIC ([1]; strain K. pneumoniae OM2, NDM-1 + TEM-1 + CTX-M-3 + SHV-11 + OXA-1) was 0.75 µg/mL. For the same compound, the MIC ([1]; strain K. pneumoniae OMA419, NDM-1 + OXA-1) was 1.5 µg/mL, the MIC ([1]; strain K. pneumoniae OMA, OXA-181 + CTXM-15 + OXA-1) was 0.5 µg/mL and the MIC ([1]; strain K. pneumoniae ROU, OXA-48 + CTX-M-15) was 0.5 µg/mL. It also gave an MIC ([1]; strain K. pneumoniae SCO, OXA-48) of 0.5 µg/mL, an MIC ([1]; strain K. pneumoniae SIC, OXA-48 + CTX-M-15 + SHV-28) of 0.25 µg/mL and an MIC ([1]; strain K. pneumoniae VSG, OXA-48 + TEM-1 + CTX-M-15 + OXA-1) of 0.75 µg/mL. The MIC ([2]; P. rettgeri RAP (OXA-181 + OXA-1)) was 8 µg/mL, the MIC ([2]; P. rettgeri RAP, OXA-181 + OXA-1) was 8 µg/mL and the MIC ([2]; strain P. rettgeri RAP, OXA-181 + OXA-1) was 8 µg/mL. It also gave an MIC ([3]; P. mirabilis 1031 (CTX-M-14 + TEM-1 + SHV-11)) of 1.5 µg/mL, an MIC ([3]; P. mirabilis 1031, CTX-M-14 + TEM-1 + SHV-11, non-carbapenemase producer) of 1.5 µg/mL and an MIC ([3]; P. mirabilis PMA (ACC-1)) of 0.25 µg/mL. It also gave an MIC ([3]; P. mirabilis PMA, ACC-1, non-carbapenemase producer) of 0.25 µg/mL, an MIC ([4]; E. aerogenes 1009, TEM-24, non-carbapenemase producer) of 0.19 µg/mL and an MIC ([4]; E. aerogenes 1085 (TEM-24)) of 0.12 µg/mL. For the same compound, the MIC ([4]; E. aerogenes 1085, TEM-24, non-carbapenemase producer) was 0.12 µg/mL, the MIC ([4]; strain E. aerogenes 1085, TEM-24, non-carbapenemase producer) was 0.12 µg/mL and the MIC ([5]; S. typhimurium 1081 (CTX-M-1)) was 0.25 µg/mL. The MIC ([5]; S. typhimurium 1081, CTX-M-1, non-carbapenemase producer) was 0.25 µg/mL and the MIC ([5]; strain S. typhimurium 1081, CTX-M-1, non-carbapenemase producer) was 0.25 µg/mL.

Source: US9328374B2, “Selective culture medium and method for detecting carbapenem-resistant bacteria in a test sample” (Institut National de la Sante et de la Recherche Medicale …, priority 2011, dated 2016)
